In series [1] the target is Voltage-gated inwardly rectifying potassium channel KCNH2 (Homo sapiens, UniProt Q12809). Conditions: Potency.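 Further: confirmatory quantitative high-throughput screen measuring inhibition of hERG channel activity.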
A short description of series [2]: microbe, parasite or virus in culture. It is filed as functional. The note with it: Mycobacterium tuberculosis.
The subject of series [3] is HEK293. Description: cells. Conditions: Homo sapiens.
In series [4] the test system is HEK293. Description: cells. The note with it: Homo sapiens. This is another data set of the same source.
A short description of series [5]: blockers of HIV-1 ZM109 envelope-driven cell-cell fusion – HeLa effector, CEM target cells, luciferase, cherry-pick, dose response (AID 652058).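 Further: luciferase signal from HIV-1 Env mediated cell-cell fusion of effector and target cells.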 It is filed as functional, cell-based.
The nature of series [6]: HIV-1 AD8 envelope cell-cell fusion blockers – cherry-pick, dose response (AID 652062).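 Further: luciferase signal from cell-cell fusion driven by HIV-1 clade B AD8 Env; potency is for inhibitors of fusion seen as a drop in luminescence.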 It is filed as functional, cell-based.
A short description of series [7]: off-target signal loss in HeLa-CEM21 co-culture – HeLa F-luc CTL cells, cherry-picked, counter-screen for HIV-1 Env fusion inhibitor project, dose response (AID 652040).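 Further: potency for signal decrease marking cytotoxic or nonspecific inhibition.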 The series is classed as functional, cell-based.
Series [8] in a line: blockers of HIV-1 envelope-mediated cell-cell fusion – cherry-pick, dose response (AID 652057). It is filed as functional, cell-based.
A further series addresses Cytochrome P450 2C19 (Homo sapiens, UniProt P33261). Nature of the series: Cytochrome panel assay with activity outcomes. Panel member name: p450-cyp2c19 Compounds with AC50 equal or less than 10 uM are considered active. It is filed as functional. Conditions: read-out: AC50.
For series [9], the target named is Induced myeloid leukemia cell differentiation protein Mcl-1 (Homo sapiens, UniProt Q07820). The series is classed as functional.
The target of a further series is Cytochrome P450 2D6 (Homo sapiens, UniProt P10635).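 Further: CYP2D6 member of a cytochrome P450 panel assay.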
For the next series, the target named is T1, Cytochrome P450 1A2 (Homo sapiens, UniProt P05177).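 Further: PubChem cytochrome P450 panel assay, CYP1A2 panel member.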
T1 sequence (P05177 whole entry): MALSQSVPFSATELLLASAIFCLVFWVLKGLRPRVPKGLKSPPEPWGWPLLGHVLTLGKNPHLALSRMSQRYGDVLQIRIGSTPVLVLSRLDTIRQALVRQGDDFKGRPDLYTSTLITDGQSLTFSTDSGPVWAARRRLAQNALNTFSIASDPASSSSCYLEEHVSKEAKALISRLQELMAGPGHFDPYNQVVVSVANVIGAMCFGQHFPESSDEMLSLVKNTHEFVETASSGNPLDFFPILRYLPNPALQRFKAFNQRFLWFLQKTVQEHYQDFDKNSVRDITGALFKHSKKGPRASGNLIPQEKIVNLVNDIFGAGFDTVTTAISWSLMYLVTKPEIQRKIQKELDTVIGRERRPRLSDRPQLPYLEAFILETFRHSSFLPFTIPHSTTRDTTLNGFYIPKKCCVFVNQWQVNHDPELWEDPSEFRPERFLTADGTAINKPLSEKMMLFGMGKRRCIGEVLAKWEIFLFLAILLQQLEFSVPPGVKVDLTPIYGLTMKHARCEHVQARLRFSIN

For series [10], the target named is T2, Cytochrome P450 2C9 (Homo sapiens, UniProt P11712).
Series [11] has as its target T3, Aryl hydrocarbon receptor (Homo sapiens, UniProt P35869).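 Further: confirmatory quantitative high-throughput screen measuring activation of the AhR signaling pathway.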
T3 sequence (P35869 whole entry): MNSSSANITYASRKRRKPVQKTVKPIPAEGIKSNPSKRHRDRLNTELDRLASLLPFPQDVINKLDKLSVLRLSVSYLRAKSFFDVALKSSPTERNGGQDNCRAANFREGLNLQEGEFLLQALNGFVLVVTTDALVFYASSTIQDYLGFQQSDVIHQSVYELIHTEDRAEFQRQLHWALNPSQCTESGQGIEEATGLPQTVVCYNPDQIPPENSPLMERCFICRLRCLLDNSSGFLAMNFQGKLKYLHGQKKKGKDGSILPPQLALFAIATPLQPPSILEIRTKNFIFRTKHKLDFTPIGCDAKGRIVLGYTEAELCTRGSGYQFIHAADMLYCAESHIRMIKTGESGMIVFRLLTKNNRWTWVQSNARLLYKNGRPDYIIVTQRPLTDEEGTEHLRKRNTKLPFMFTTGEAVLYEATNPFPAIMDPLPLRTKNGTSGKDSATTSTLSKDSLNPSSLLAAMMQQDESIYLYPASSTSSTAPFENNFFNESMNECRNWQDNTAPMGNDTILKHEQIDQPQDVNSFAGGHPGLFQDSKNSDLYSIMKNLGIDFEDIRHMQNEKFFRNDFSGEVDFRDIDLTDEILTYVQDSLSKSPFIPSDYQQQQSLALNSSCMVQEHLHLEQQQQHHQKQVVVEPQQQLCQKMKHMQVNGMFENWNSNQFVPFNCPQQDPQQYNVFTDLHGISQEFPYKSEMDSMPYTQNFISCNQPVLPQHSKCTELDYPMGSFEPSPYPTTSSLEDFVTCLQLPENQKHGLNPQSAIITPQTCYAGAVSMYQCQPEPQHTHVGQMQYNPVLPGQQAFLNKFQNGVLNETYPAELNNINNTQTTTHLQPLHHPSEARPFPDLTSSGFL
The note with it: Potency.

The target of series [12] is T2, Cytochrome P450 2C9. The source holds these as a separate data set.
Series [13] deals with T4, Replicative DNA helicase DnaB (Mycobacterium tuberculosis, UniProt P9WMR3).
T4 sequence (P9WMR3 whole entry): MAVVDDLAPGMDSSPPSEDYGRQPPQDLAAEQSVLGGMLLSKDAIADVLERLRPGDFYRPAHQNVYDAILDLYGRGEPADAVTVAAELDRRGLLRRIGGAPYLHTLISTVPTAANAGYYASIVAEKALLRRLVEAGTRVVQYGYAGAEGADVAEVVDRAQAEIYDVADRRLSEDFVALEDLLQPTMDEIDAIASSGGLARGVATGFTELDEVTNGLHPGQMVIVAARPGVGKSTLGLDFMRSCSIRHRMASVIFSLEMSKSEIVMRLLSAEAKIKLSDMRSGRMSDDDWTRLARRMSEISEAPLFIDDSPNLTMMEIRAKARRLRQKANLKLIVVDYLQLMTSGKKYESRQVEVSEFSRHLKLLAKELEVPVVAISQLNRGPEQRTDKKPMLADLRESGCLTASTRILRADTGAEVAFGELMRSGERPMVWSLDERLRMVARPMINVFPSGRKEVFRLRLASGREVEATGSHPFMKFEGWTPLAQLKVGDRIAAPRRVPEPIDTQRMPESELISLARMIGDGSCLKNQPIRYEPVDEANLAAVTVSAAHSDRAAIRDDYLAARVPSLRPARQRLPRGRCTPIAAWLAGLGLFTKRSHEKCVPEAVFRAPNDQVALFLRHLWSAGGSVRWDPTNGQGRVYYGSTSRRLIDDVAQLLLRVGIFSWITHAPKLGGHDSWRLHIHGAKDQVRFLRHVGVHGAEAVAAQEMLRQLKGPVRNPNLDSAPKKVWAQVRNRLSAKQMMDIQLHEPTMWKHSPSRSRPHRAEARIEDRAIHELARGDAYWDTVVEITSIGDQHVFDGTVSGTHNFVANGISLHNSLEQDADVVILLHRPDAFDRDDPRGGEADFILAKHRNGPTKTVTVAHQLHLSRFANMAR
Nature of the series: DnaB intein splicing inhibitors, dose response, biochemical, cell-free fluorescence (AID 449749). The series is classed as functional.

The nature of series [14]: fluconazole-exposed Candida albicans growth modulators – fluorescence, retest, confirmation (AID 2467). It is filed as functional, cell-based.
For the next series, the target named is T5, Protein RecA (Mycobacterium tuberculosis, UniProt P9WHJ3).
T5 sequence (P9WHJ3 whole entry): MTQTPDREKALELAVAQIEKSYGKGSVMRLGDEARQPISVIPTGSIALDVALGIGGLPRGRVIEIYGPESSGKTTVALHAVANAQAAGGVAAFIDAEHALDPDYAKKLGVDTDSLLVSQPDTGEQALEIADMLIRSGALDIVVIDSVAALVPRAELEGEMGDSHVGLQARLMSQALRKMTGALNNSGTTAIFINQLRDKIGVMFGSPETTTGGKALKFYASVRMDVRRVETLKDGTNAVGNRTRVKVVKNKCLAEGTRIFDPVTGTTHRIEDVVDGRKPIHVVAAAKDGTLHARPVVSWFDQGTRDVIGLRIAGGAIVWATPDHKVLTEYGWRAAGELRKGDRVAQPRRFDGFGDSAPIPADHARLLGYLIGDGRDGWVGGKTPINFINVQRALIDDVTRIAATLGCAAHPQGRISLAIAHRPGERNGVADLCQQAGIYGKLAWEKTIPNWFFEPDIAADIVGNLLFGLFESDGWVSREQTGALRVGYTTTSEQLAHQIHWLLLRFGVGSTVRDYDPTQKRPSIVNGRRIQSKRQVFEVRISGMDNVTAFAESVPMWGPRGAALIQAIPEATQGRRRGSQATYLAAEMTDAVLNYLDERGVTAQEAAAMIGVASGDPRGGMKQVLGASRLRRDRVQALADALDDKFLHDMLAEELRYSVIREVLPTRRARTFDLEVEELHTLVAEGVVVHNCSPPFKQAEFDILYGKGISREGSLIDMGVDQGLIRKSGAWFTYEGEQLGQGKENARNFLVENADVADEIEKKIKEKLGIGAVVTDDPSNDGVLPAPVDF
Description: Fluorescence Cell-Free Homogeneous Dose Retest to Identify Inhibitors of RecA-Intein Splicing Activity. [Related pubchem assays (depositor defined):AID2097, AID2223, AID489010, AID492950]. It is filed as functional.

Series [15] in a line: NIH3T3 cell viability loss – ATP luminescence, mouse fibroblasts, counter-screen, dose response (AID 2010).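 Further: cells exposed to compound for about 90 hours before reading.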 The series is classed as functional, cell-based.
Series [16] can be described thus: NIH-3T3 fibroblast cytotoxicity, dose response, cytotoxicity control, cell-based, fluorescence, Alamar Blue, secondary assay (AID 2327).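 Further: NIH-3T3 mouse fibroblasts cultured with fluconazole at 8 µg/mL.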 It is filed as functional. Background: Resazurin is reduced to fluorescent resorufin, in cell work by metabolically active cells.
For series [17], the target named is T6, Microphthalmia-associated transcription factor (Homo sapiens, UniProt O75030).
T6 sequence (O75030 whole entry): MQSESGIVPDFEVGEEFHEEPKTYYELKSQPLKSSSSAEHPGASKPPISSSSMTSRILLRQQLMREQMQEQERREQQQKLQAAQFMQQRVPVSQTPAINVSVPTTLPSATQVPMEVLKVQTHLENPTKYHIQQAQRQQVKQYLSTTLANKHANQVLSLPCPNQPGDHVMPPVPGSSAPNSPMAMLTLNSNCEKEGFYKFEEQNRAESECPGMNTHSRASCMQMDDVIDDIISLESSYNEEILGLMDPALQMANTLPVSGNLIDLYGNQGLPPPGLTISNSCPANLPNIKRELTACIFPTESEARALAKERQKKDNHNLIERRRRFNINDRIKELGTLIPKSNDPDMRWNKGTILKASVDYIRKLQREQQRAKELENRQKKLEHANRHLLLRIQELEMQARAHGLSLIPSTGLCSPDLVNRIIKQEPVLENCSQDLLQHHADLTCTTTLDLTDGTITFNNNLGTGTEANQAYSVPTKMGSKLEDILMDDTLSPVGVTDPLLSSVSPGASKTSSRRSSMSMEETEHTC
Nature of the series: reducers of TRPM1 reporter luminescence, concentration series – cell-based, SK-MEL-5, cherry-picked, set 3, MITF inhibitor project, dose response (AID 493073).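 Further: SK-MEL-5 melanoma cells with luciferase driven by the MITF target TRPM1 promoter.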 The series is classed as functional.

The nature of series [18]: Trypanosoma cruzi growth suppression in host cells – NIH3T3 host cells, beta-gal luminescence, confirmation (AID 2044).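 Further: intracellular parasites grown in NIH/3T3 mouse fibroblasts as host cells; luminescent beta-galactosidase reporter signal from transgenic T. cruzi replicating inside host cells; inhibitors lower the luminescence signal.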 The series is classed as functional, cell-based.
A further series has as its system A-375. Nature of the series: proliferation inhibition in MITF-low A375 cells – cell-based, cherry-pick samples, set 2, counter-screen for MITF modulator project, dose response (AID 540335). It is filed as functional. The note with it: Homo sapiens. Background: A counterscreen serves to expose hits that act by an unwanted route or on another target.

As a reminder, the AC50 is the concentration giving half of the maximal activity seen. As usually defined, the EC50 is the midpoint of the concentration-response curve. As usually defined, the IC50 is the midpoint of a concentration-inhibition curve.

Each structure is given as a SMILES string. Activity calls are given as the source filed them.

Sequence of Voltage-gated inwardly rectifying potassium channel KCNH2 (Q12809 whole entry): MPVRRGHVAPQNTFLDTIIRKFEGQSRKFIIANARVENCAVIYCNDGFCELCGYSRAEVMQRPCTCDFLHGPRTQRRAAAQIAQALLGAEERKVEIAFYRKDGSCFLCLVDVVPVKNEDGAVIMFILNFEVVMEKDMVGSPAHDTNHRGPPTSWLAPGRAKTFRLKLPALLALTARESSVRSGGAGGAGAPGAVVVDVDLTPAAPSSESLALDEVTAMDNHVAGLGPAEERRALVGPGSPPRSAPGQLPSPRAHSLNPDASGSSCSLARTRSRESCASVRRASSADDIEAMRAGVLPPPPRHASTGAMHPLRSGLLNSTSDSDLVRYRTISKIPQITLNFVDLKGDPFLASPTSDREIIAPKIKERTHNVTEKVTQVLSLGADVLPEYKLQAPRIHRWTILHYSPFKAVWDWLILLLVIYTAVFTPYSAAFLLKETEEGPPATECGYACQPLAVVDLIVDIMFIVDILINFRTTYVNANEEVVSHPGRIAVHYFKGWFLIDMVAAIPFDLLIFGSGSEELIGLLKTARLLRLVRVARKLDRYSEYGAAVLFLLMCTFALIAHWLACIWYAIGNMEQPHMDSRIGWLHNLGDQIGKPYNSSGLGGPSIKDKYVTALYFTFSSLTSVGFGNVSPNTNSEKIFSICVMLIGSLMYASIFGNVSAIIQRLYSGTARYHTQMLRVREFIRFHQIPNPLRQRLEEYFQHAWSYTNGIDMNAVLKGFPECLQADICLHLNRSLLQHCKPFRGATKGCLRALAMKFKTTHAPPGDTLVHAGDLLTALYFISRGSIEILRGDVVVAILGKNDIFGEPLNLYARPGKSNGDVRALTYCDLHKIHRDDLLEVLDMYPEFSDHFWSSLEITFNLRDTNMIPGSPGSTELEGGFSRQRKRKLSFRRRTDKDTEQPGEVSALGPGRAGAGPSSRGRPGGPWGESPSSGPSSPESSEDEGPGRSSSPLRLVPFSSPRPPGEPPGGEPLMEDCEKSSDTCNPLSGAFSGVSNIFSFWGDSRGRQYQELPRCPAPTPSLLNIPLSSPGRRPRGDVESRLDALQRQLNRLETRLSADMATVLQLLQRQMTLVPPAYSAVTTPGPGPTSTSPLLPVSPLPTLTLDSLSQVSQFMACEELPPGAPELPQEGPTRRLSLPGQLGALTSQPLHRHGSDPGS
T2 sequence (P11712 whole entry): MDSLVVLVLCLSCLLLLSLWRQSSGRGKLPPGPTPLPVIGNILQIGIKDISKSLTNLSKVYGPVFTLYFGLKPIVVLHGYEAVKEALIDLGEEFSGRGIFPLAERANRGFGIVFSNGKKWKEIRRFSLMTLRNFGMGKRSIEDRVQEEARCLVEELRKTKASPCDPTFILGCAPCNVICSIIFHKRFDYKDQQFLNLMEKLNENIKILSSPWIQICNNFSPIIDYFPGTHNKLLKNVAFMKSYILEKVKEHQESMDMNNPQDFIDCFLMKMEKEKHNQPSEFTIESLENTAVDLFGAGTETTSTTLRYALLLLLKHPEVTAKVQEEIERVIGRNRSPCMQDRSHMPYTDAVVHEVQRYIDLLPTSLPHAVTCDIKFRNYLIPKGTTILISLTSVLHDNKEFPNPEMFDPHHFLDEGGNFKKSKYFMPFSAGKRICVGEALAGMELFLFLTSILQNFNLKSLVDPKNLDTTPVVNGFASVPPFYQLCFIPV
Sequence of Cytochrome P450 2C19 (P33261 whole entry): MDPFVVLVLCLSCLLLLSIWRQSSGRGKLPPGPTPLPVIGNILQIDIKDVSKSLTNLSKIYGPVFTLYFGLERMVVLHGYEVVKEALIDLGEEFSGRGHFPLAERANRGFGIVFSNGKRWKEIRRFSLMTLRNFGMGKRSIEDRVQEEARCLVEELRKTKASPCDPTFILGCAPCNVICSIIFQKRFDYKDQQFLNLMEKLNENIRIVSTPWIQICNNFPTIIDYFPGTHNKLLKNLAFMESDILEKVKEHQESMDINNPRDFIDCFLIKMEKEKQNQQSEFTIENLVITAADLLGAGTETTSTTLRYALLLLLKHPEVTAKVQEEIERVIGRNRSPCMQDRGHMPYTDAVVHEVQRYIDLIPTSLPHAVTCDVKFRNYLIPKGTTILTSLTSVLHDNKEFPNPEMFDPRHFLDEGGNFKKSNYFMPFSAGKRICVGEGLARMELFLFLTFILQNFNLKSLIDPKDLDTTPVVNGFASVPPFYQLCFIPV
Sequence of Cytochrome P450 2D6 (P10635 whole entry): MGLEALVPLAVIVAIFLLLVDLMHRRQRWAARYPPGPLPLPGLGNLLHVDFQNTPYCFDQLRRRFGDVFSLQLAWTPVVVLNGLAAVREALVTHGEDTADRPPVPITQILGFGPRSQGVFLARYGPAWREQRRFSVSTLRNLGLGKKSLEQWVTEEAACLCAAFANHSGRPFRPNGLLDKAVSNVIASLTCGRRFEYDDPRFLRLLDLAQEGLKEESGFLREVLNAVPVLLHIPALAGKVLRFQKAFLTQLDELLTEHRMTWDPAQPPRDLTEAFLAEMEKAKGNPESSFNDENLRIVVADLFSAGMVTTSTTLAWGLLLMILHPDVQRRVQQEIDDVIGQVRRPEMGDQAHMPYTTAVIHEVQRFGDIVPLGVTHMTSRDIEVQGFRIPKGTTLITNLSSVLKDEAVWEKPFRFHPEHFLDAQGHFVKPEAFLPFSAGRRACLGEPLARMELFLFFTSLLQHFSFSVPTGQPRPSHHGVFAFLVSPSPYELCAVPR
Sequence of Induced myeloid leukemia cell differentiation protein Mcl-1 (Q07820 whole entry): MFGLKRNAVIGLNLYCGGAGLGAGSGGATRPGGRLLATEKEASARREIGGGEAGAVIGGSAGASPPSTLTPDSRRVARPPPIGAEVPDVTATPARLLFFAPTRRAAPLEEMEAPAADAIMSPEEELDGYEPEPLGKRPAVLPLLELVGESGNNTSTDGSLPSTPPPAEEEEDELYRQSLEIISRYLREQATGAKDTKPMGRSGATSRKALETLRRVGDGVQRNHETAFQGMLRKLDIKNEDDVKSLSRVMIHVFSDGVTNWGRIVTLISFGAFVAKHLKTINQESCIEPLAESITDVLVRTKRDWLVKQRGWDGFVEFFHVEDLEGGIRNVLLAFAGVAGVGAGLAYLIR

On to `CCCCCC(O)c1cccc(OCc2ccc3ccccc3n2)c1` (stereo not given) [REV-5901], for which the AC50 in series [1] is 35.5 µM (inconclusive). Besides, the CC50 in [2] is > 40 µM (active).

Take `Cc1ccc(S(=O)(=O)Cn2nnnc2C(C(C)C)N2CCc3ccccc3C2)cc1` (stereo not given): the EC50 in the series with HEK293 [3] and in the series on HEK293 [4] was > 59.6 µM (inactive) in each case.

Regarding `CCCCCCCCCCCCCC(=O)O[C@@H]1[C@@H](C)[C@@]2(O)[C@@H](C=C(CO)C[C@@]3(O)C(=O)C(C)=C[C@@H]23)C2C(C)(C)[C@@]21OC(C)=O` (stereo not given in full), the AC50 in series [1] is 0.112 µM (inconclusive).

On to `COc1ccc(CC(C)NCC(O)c2ccc(O)c(NC=O)c2)cc1` (stereo not given), for which the EC50 in the series with HEK293 [3] and in the series with HEK293 [4] was > 59.6 µM (inactive) each time.

Regarding `C[C@@]12C(=O)N(CCc3c[nH]c4ccccc34)CC(=O)N1[C@H]1c3ccccc3OC[C@@H]1[C@@H]2c1ccccc1`, the half-maximal activity concentration (AC50) was 2.7 µM (active) in series [5], 4.46 µM (active) in series [6], 3.73 µM (active) in series [7] and 2.67 µM (active) in series [8]. In addition, the EC50 in the series on HEK293 [3] and in the series with HEK293 [4] was > 59.7 µM (inactive) throughout.

As to `COc1ccc2[nH]c([S+]([O-])Cc3ncc(C)c(OC)c3C)nc2c1` (stereo not given) [OMEPRAZOLE], the AC50 at Cytochrome P450 2C19 is 2.51 µM (active); on Cytochrome P450 2D6, “inactive”; on Cytochrome P450 1A2, 31.6 µM (inconclusive); on Cytochrome P450 2C9 [10], “inactive”; in [11], 20 µM (inconclusive). Moreover, the IC50 in [9] was 3.14 µM (active).

`CCCCCCN(CCCCCC)C(=O)Cc1c(-c2ccc(F)cc2)[nH]c2ccccc12`: the AC50 at Cytochrome P450 1A2 is 15.8 µM (inconclusive); at Cytochrome P450 2C9 [12] it was 5.01 µM (inconclusive); in [1], 8.91 µM (inconclusive).

As for `O=C(CCl)N1c2ccccc2CCc2ccccc21`, the half-maximal activity concentration (AC50) in series [13] is 7.5 µM (active); in series [17], 5.54 µM (active); in the series with A-375 it was 42.7 µM (active). The concentration for a half-maximal effect (EC50) was 2.36 µM (active) in series [14]; 0.45 µM (active) at Protein RecA; 4.26 µM (active) in series [15]; 5.37 µM (inconclusive) in series [16]; 2.09 µM (active) in [18].

The record behind these values is ChEMBL document CHEMBL1201862, “PubChem BioAssay data set” (2004).
